Results published in patent US6579545B2, “Coated chewing gum products containing an antigas agent” (WM. Wrigley Jr. Company, priority 2000, dated 2003).

Source text: Analysis of a precipitated calcium carbonate having a median particle size of about 5 microns was done before and after being applied as a coating.

O=C([O-])[O-].[Ca+2] [precipitated calcium carbonate, calcium carbonate]
particle size (after preparing a suspension and applying it to a gum pellet for an antacid gum product): 4.9 microns
median particle size (before coating): 5.1 microns
